According to patent US11964949B2, “Substituted phenyloxazolidinones for antimicrobial therapy” (priority 2015, dated 2024):
≈ marks a conversion by molar mass, not a printed value. Like-named read-outs stand apart in the source and are kept apart here.

Tests used:
[1] = test system: mitochondrial protein synthesis (MPS) in H9C2 cells; test: In vitro assay for MPS inhibition (COX-1 / SDH-A ELISA in H9C2 cells); assay type: cell-based, rat; conditions: Rattus norvegicus, read-out: IC50 (μM) MPS inhibition
[2] = test system: Mycobacterium tuberculosis H37Rv; test: In vitro assay for antimicrobial susceptibility (microplate Alamar blue, MIC); assay type: cell-based; conditions: Mycobacterium tuberculosis, read-out: MIC (μg/mL) against H37Rv
[3] = 120 h, H9C2 cells, 5 days incubation
[4] = M. tuberculosis H37Rv, 7H9 broth, Alamar blue

SMILES	IC50 [1, 3]	MIC [2, 4]	IC50 ([1]; H9c2, 120 h)	MIC ([2]; H37RV)
O=C1O[C@@H](Cn2cncn2)CN1c1ccc(N2CCC[S+]([O-])CC2)c(F)c1 (stereo partly drawn) [OTB-140, (5R)-5-((1H-1,2,4-Triazol-1-yl)methyl)-3-(3-fluoro-4-(1-oxido-1,4-thiazepan-4-yl)phenyl)oxazolidin-2-one]	> 100 µM	3.69 µg/mL (≈ 9.39 µM)		
CC(=O)NC[C@H]1CN(c2ccc(N3CC4(COC4)C3)c(F)c2)C(=O)O1 [OTB-202, (S)—N-((3-(3-Fluoro-4-(2-oxa-6-azaspiro[3.3]heptan-6-yl)phenyl)-2-oxo-oxazolidin-5-yl)methyl)acetamide]	17 to 29 µM	0.6 to 1.2 µg/mL (≈ 1.72 to 3.43 µM)		
CC(=O)NC[C@H]1CN(c2ccc(N3C4CSCC3C4)c(F)c2)C(=O)O1 [OTB-227, N-(((5S)-3-(4-(3-Thia-6-azabicyclo[3.1.1]heptan-6-yl)-3-fluorophenyl)-2-oxo-oxazolidin-5-yl)methyl)acetamide]			15.2 µM	0.889 µg/mL (≈ 2.43 µM)
O=C1O[C@@H](CO)CN1c1cc(F)c(N2CC3(COC3)C2)c(F)c1 [OTB-229, (R)-3-(3,5-Difluoro-4-(2-oxa-6-azaspiro[3.3]heptan-6-yl)phenyl)-5-(hydroxymethyl)oxazolidin-2-one]	> 100 µM	1.9 to 7.4 µg/mL (≈ 5.82 to 22.7 µM)		
CC(=O)NC[C@H]1CN(c2cc(F)c(N3CC4(COC4)C3)c(F)c2)C(=O)O1 [OTB-230, (S)—N-((3-(3,5-Difluoro-4-(2-oxa-6-azaspiro[3.3]heptan-6-yl)phenyl)-2-oxo-oxazolidin-5-yl)methyl)acetamide]	13 µM	0.2 µg/mL (≈ 0.544 µM)		
COC(=O)NC[C@H]1CN(c2cc(F)c(N3CC4(COC4)C3)c(F)c2)C(=O)O1 [OTB-231, Methyl (S)-((3-(3,5-difluoro-4-(2-oxa-6-azaspiro[3.3]heptan-6-yl)phenyl)-2-oxo-oxazolidin-5-yl)methyl)carbamate]	37 to 63 µM	0.24 to 0.7 µg/mL (≈ 0.626 to 1.83 µM)		
CS(=O)(=O)NC[C@H]1CN(c2cc(F)c(N3CC4(COC4)C3)c(F)c2)C(=O)O1 [OTB-232, (R)—N-((3-(3,5-Difluoro-4-(2-oxa-6-azaspiro[3.3]heptan-6-yl)phenyl)-2-oxo-oxazolidin-5-yl)methyl)methanesulfonamide]	> 100 µM	1.5 to 4 µg/mL (≈ 3.72 to 9.92 µM)		
O=C(NC[C@H]1CN(c2cc(F)c(N3CC4(COC4)C3)c(F)c2)C(=O)O1)C1CC1 [OTB-233, (S)—N-((3-(3,5-Difluoro-4-(2-oxa-6-azaspiro[3.3]heptan-6-yl)phenyl)-2-oxo-oxazolidin-5-yl)methyl)cyclopropanecarboxamide]	8.4 to 50 µM	0.36 to 1 µg/mL (≈ 0.915 to 2.54 µM)		
COC(=O)NC[C@H]1CN(c2ccc(N3[C@@H]4CC[C@H]3CSC4)c(F)c2)C(=O)O1 [OTB-237, Methyl (((S)-3-(4-((1R,5S)-3-thia-8-azabicyclo[3.2.1]octan-8-yl)-3-fluorophenyl)-2-Oxo-oxazolidin-5-yl)methyl)carbamate]			15 to 23 µM	0.03 to 0.11 µg/mL (≈ 0.0759 to 0.278 µM)
O=C(NC[C@H]1CN(c2ccc(N3CC4(COC4)C3)c(F)c2)C(=O)O1)C1CC1 [OTB-238, (S)—N-((3-(3-Fluoro-4-(2-oxa-6-azaspiro[3.3]heptan-6-yl)phenyl)-2-oxo-oxazolidin-5-yl)methyl)cyclopropanecarboxamide]	20 µM	2 to 4 µg/mL (≈ 5.33 to 10.7 µM)		
O=C(NC[C@H]1CN(c2ccc(N3CC4(COC4)C3)c(F)c2)C(=O)O1)C1CCC1 [OTB-239, (S)—N-((3-(3-Fluoro-4-(2-oxa-6-azaspiro[3.3]heptan-6-yl)phenyl)-2-oxo-oxazolidin-5-yl)methyl)cyclobutanecarboxamide]	19 to 67 µM	2.1 to 3.8 µg/mL (≈ 5.39 to 9.76 µM)		
O=C(NC[C@H]1CN(c2cc(F)c(N3CC4(COC4)C3)c(F)c2)C(=O)O1)C1CCC1 [OTB-240, (S)—N-((3-(3,5-Difluoro-4-(2-oxa-6-azaspiro[3.3]heptan-6-yl)phenyl)-2-oxo-oxazolidin-5-yl)methyl)cyclobutanecarboxamide]	19 to 67 µM	0.24 to 0.6 µg/mL (≈ 0.589 to 1.47 µM)		
O=C1O[C@@H](Cn2ccnn2)CN1c1ccc(N2CC3(CSC3)C2)c(F)c1 [OTB-241, (R)-5-((1H-1,2,3-Triazol-1-yl)methyl)-3-(3-fluoro-4-(2-thia-6-azaspiro[3.3]heptan-6-yl)phenyl)oxazolidin-2-one]	19.8 µM	0.116 µg/mL (≈ 0.309 µM)		
COC(=O)NC[C@H]1CN(c2cc(F)c(N3CC4(CSC4)C3)c(F)c2)C(=O)O1 [OTB-242, Methyl (S)-((3-(3,5-difluoro-4-(2-thia-6-azaspiro[3.3]heptan-6-yl)phenyl)-2-oxo-oxazolidin-5-yl)methyl)carbamate]	23 to 71 µM	0.02 to 0.06 µg/mL (≈ 0.0501 to 0.15 µM)		
O=C(NC[C@H]1CN(c2cc(F)c(N3CC4(CSC4)C3)c(F)c2)C(=O)O1)C1CC1 [OTB-243, (S)—N-((3-(3,5-Difluoro-4-(2-thia-6-azaspiro[3.3]heptan-6-yl)phenyl)-2-oxo-oxazolidin-5-yl)methyl)cyclopropanecarboxamide]	14 µM	0.03 µg/mL (≈ 0.0733 µM)		
O=C1O[C@@H](Cn2ccnn2)CN1c1cc(F)c(N2CC3(CSC3)C2)c(F)c1 [OTB-245, (R)-5-((1H-1,2,3-Triazol-1-yl)methyl)-3-(3,5-difluoro-4-(2-thia-6-azaspiro[3.3]heptan-6-yl)phenyl)oxazolidin-2-one]	25 to 35 µM	0.03 to 0.5 µg/mL (≈ 0.0763 to 1.27 µM)		
O=C1O[C@@H](Cn2ccnn2)CN1c1ccc(N2CC3(C2)C[S+]([O-])C3)c(F)c1 [OTB-247]	10 µM	1.2 to 1.4 µg/mL (≈ 3.07 to 3.58 µM)		
O=C(NC[C@H]1CN(c2cc(F)c(N3CC4(C3)C[S+]([O-])C4)c(F)c2)C(=O)O1)C1CCC1 [OTB-251]	24 µM	0.9 µg/mL (≈ 2.05 µM)		
O=C(NC[C@H]1CN(c2cc(F)c(N3CC4(C3)C[S+]([O-])C4)c(F)c2)C(=O)O1)C1CC1 [OTB-252]	52 µM	0.7 µg/mL (≈ 1.65 µM)		
COC(=O)NC[C@H]1CN(c2cc(F)c(N3CC4(C3)C[S+]([O-])C4)c(F)c2)C(=O)O1 [OTB-253]	10 µM	0.7 µg/mL (≈ 1.69 µM)		

SMILES	IC50 [1, 3]	MIC [2, 4]	IC50 ([1]; H9c2, 120 h)	MIC ([2]; H37RV)
O=C(NC[C@H]1CN(c2ccc(N3CC4(C3)C[S+]([O-])C4)c(F)c2)C(=O)O1)C1CC1 [OTB-255]	10 µM	1.9 µg/mL (≈ 4.66 µM)		
COC(=O)NC[C@H]1CN(c2ccc(N3CC4(C3)C[S+]([O-])C4)c(F)c2)C(=O)O1 [OTB-256]	46 µM	4 µg/mL (≈ 10.1 µM)		
O=C1O[C@@H](CO)CN1c1ccc(N2CC3(CSC3)C2)c(F)c1 [OTB-260, (R)-3-(3-Fluoro-4-(2-thia-6-azaspiro[3.3]heptan-6-yl)phenyl)-5-(hydroxymethyl)oxazolidin-2-one]	30 µM	1.49 µg/mL (≈ 4.59 µM)		
CS(=O)(=O)NC[C@H]1CN(c2ccc(N3CC4(CSC4)C3)c(F)c2)C(=O)O1 [OTB-260-2A]	> 100 µM	0.82 µg/mL (≈ 2.04 µM)		
CS(=O)(=O)NC[C@H]1CN(c2ccc(N3CC4(C3)C[S+]([O-])C4)c(F)c2)C(=O)O1 [OTB-260-2B]	> 100 µM	0.49 µg/mL (≈ 1.17 µM)		
CNC(=O)OC[C@H]1CN(c2ccc(N3CC4(CSC4)C3)c(F)c2)C(=O)O1 [OTB-260-4A]	> 100 µM			0.39 µg/mL (≈ 1.02 µM)
CNC(=O)OC[C@H]1CN(c2ccc(N3CC4(C3)C[S+]([O-])C4)c(F)c2)C(=O)O1 [OTB-260-4B]	> 100 µM			20 µg/mL (≈ 50.3 µM)
O=C1O[C@@H](Cn2nccn2)CN1c1ccc(N2CC3(CSC3)C2)c(F)c1 [OTB-260-5A]	> 100 µM	0.44 µg/mL (≈ 1.17 µM)		
O=C1O[C@@H](Cn2nccn2)CN1c1ccc(N2CC3(C2)C[S+]([O-])C3)c(F)c1 [OTB-260-5B]	> 100 µM	> 32 µg/mL		
CC(=O)NC[C@H]1CN(c2ccc(N3CC4(CSC4)C3)c(F)c2)C(=O)O1 [OTB-261, (S)—N-((3-(3-Fluoro-4-(2-thia-6-azaspiro[3.3]heptan-6-yl)phenyl)-2-oxo-oxazolidin-5-yl)methyl)acetamide]	2 µM	0.12 µg/mL (≈ 0.328 µM)		
CC(=O)NC[C@H]1CN(c2cc(F)c(N3CCCSCC3)c(F)c2)C(=O)O1 [OTB-407, (S)—N-((3-(3,5-Difluoro-4-(1,4-thiazepan-4-yl)phenyl)-2-oxo-oxazolidin-5-yl)methyl)acetamide]	3.08 µM	0.097 µg/mL (≈ 0.252 µM)		
O=C(NC[C@H]1CN(c2cc(F)c(N3CCCSCC3)c(F)c2)C(=O)O1)C1CC1 [OTB-408]	3.61 µM	0.342 µg/mL (≈ 0.831 µM)		
O=C(NC[C@H]1CN(c2cc(F)c(N3CCCSCC3)c(F)c2)C(=O)O1)C1CCC1 [OTB-409]	8.51 µM	0.477 µg/mL (≈ 1.12 µM)		
COC(=O)NC[C@H]1CN(c2cc(F)c(N3CCCSCC3)c(F)c2)C(=O)O1 [OTB-410, Methyl (S)-((3-(3,5-difluoro-4-(1,4-thiazepan-4-yl)phenyl)-2-oxo-oxazolidin-5-yl)methyl)carbamate]	> 100 µM	0.125 µg/mL (≈ 0.311 µM)		
O=C1O[C@@H](Cn2ccnn2)CN1c1cc(F)c(N2CCCSCC2)c(F)c1 [OTB-411, (R)-5-((1H-1,2,3-triazol-1-yl)methyl)-3-(3,5-difluoro-4-(1,4-thiazepan-4-yl)phenyl)oxazolidin-2-one]	8.73 µM	0.124 µg/mL (≈ 0.314 µM)		
COC(=O)NC[C@H]1CN(c2ccc(N3CCCSCC3)c(F)c2)C(=O)O1 [OTB-412, Methyl (S)-((3-(3-fluoro-4-(1,4-thiazepan-4-yl)phenyl)-2-oxo-oxazolidin-5-yl)methyl) carbamate]	10 µM	0.199 µg/mL (≈ 0.519 µM)		
O=C(NC[C@H]1CN(c2ccc(N3CCCSCC3)c(F)c2)C(=O)O1)C1CC1 [OTB-413, (S)—N-((3-(3-Fluoro-4-(1,4-thiazepan-4-yl)phenyl)-2-oxo-oxazolidin-5-yl)methyl)cyclopropanecarboxamide]	9.13 µM	0.108 µg/mL (≈ 0.274 µM)		
CC(=O)NC[C@H]1CN(c2ccc(N3[C@@H]4CC[C@H]3CSC4)c(F)c2)C(=O)O1 [OTB-502, N—(((S)-3-(4-((1R,5S)-3-Thia-8-azabicyclo[3.2.1]octan-8-yl)-3-fluorophenyl)-2-oxooxazolidin-5-yl)methyl)acetamide]			13.6 µM	0.246 µg/mL (≈ 0.648 µM)
O=C(NC[C@H]1CN(c2ccc(N3[C@@H]4CC[C@H]3CSC4)c(F)c2)C(=O)O1)C1CC1 [OTB-506, N—(((S)-3-(4-((1R,5S)-3-Thia-8-azabicyclo[3.2.1]octan-8-yl)-3-fluorophenyl)-2-oxo-oxazolidin-5-yl)methyl)cyclopropanecarboxamide]			8 µM	1 µg/mL (≈ 2.47 µM)
